Experimental data from patent US12673945B2, “3-((8-((1H-pyrazol-4-yl)amino)imidazo[1,2-a]pyridin-3-yl)ethinyl)-n-phenylbenzamide derivative, method for preparing same, and pharmaceutical composition containing same as active ingredient for prevention or treatment of cancer” (DAEGU-GYEONGBUK MEDICAL INNOVATION FOUNDATION, priority 2020, dated 2026).

Tests used:
Assay in all cases: scanMAX Kinase panel (DiscoverX)
Format in all cases: binding
TNK2 = biological target: T1, TNK2 (Homo sapiens, UniProt Q07912); conditions: read-out: % Cont @ 1 uM
T1 construct: purchased DiscoverX scanMAX Kinase panel
In short: (§1)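 In this selectivity panel, the kinase was challenged with 1 μM of test agent in DMSO. Percent control was then computed from compound, positive-control and negative-control signals.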

[1] = biological target: T2, ABL1(E255K)-phosphorylated (Homo sapiens, UniProt P00519, E255K); conditions: read-out: % Cont @ 1 uM
T2 construct: purchased DiscoverX
In short: as §1

RET(V804M) = biological target: T3, RET(V804M) (Homo sapiens, UniProt P07949, V804M); conditions: read-out: % Cont @ 1 uM
T3 construct: purchased DiscoverX scanMAX Kinase panel
In short: as §1

[2] = biological target: T4, ABL1(F317L)-phosphorylated (Homo sapiens, UniProt P00519, F317L); conditions: read-out: % Cont @ 1 uM
T4 construct: purchased DiscoverX
In short: as §1

KIT(V559D, V654A) = biological target: T5, KIT(V559D, V654A) (Homo sapiens, UniProt P10721, V559D/V654A); conditions: read-out: % Cont @ 1 uM
T5 construct: purchased DiscoverX scanMAX Kinase panel
In short: as §1

YSK4 = biological target: T6, YSK4 (Homo sapiens, UniProt Q56UN5); conditions: read-out: % Cont @ 1 uM
T6 construct: purchased DiscoverX scanMAX Kinase panel
In short: as §1

[3] = biological target: T7, ABL1(T315I)-nonphosphorylated (Homo sapiens, UniProt P00519, T315I); conditions: read-out: % Cont @ 1 uM
T7 construct: purchased DiscoverX
In short: as §1

MEK5 = biological target: T8, MEK5 (Homo sapiens, UniProt Q13163); conditions: read-out: % Cont @ 1 uM
T8 construct: purchased DiscoverX scanMAX Kinase panel
In short: as §1

BTK = biological target: T9, BTK (Homo sapiens, UniProt Q06187)
T9 construct: purchased DiscoverX scanMAX Kinase panel
In short: as §1

LYN = biological target: T10, LYN (Homo sapiens, UniProt P07948); conditions: read-out: % Cont @ 1 uM
T10 construct: purchased DiscoverX scanMAX Kinase panel
In short: as §1

PFTAIRE2 = biological target: T11, PFTAIRE2 (Homo sapiens, UniProt Q96Q40); conditions: read-out: % Cont @ 1 uM
T11 construct: purchased DiscoverX scanMAX Kinase panel
In short: as §1

CSK = biological target: T12, CSK (Homo sapiens, UniProt P41240)
T12 construct: purchased DiscoverX scanMAX Kinase panel
In short: as §1

FLT1 = biological target: T13, FLT1 (Homo sapiens, UniProt P17948); conditions: read-out: % Cont @ 1 uM
T13 construct: purchased DiscoverX scanMAX Kinase panel
In short: as §1

STK33 = biological target: T14, STK33 (Homo sapiens, UniProt Q9BYT3); conditions: read-out: % Cont @ 1 uM
T14 construct: purchased DiscoverX scanMAX Kinase panel
In short: as §1

HPK1 = biological target: T15, HPK1 (Homo sapiens, UniProt Q92918); conditions: read-out: % Cont @ 1 uM
T15 construct: purchased DiscoverX scanMAX Kinase panel
In short: as §1

FLT3(D835H) = biological target: T16, FLT3(D835H) (Homo sapiens, UniProt P36888, D835H); conditions: read-out: % Cont @ 1 uM
T16 construct: purchased DiscoverX scanMAX Kinase panel
In short: as §1

JNK2 = biological target: T17, JNK2 (Homo sapiens, UniProt P45984)
T17 construct: purchased DiscoverX scanMAX Kinase panel
In short: as §1

CDC2L1 = biological target: T18, CDC2L1 (Homo sapiens, UniProt P21127); conditions: read-out: % Cont @ 1 uM
T18 construct: purchased DiscoverX scanMAX Kinase panel
In short: as §1

RIPK1 = biological target: T19, RIPK1 (Homo sapiens, UniProt Q13546); conditions: read-out: % Cont @ 1 uM
T19 construct: purchased DiscoverX scanMAX Kinase panel
In short: as §1

EPHB2 = biological target: T20, EPHB2 (Homo sapiens, UniProt P29323)
T20 construct: purchased DiscoverX scanMAX Kinase panel
In short: as §1

FLT4 = biological target: T21, FLT4 (Homo sapiens, UniProt P35916); conditions: read-out: % Cont @ 1 uM
T21 construct: purchased DiscoverX scanMAX Kinase panel
In short: as §1

EPHA4 = biological target: T22, EPHA4 (Homo sapiens, UniProt P54764); conditions: read-out: % Cont @ 1 uM
T22 construct: purchased DiscoverX scanMAX Kinase panel
In short: as §1

[4] = biological target: T23, ABL1(T315I)-phosphorylated (Homo sapiens, UniProt P00519, T315I); conditions: read-out: % Cont @ 1 uM
T23 construct: purchased DiscoverX
In short: as §1

[5] = biological target: T24, ABL1(H396P)-phosphorylated (Homo sapiens, UniProt P00519, H396P); conditions: read-out: % Cont @ 1 uM
T24 construct: purchased DiscoverX
In short: as §1

EPHA7 = biological target: T25, EPHA7 (Homo sapiens, UniProt Q15375); conditions: read-out: % Cont @ 1 uM
T25 construct: purchased DiscoverX scanMAX Kinase panel
In short: as §1

[6] = biological target: T26, ABL1(Y253F)-phosphorylated (Homo sapiens, UniProt P00519, Y253F); conditions: read-out: % Cont @ 1 uM
T26 construct: purchased DiscoverX scanMAX Kinase panel
In short: as §1

EGFR(G719C) = biological target: T27, EGFR(G719C) (Homo sapiens, UniProt P00533, G719C)
T27 construct: purchased DiscoverX scanMAX Kinase panel
In short: as §1

MET(Y1235D) = biological target: T28, MET(Y1235D) (Homo sapiens, UniProt P08581, Y1235D)
T28 construct: purchased DiscoverX scanMAX Kinase panel
In short: as §1

SRC = biological target: T29, SRC (Homo sapiens, UniProt P12931); conditions: read-out: % Cont @ 1 uM
T29 construct: purchased DiscoverX scanMAX Kinase panel
In short: as §1

MAP4K3 = biological target: T30, MAP4K3 (Homo sapiens, UniProt Q8IVH8)
T30 construct: purchased DiscoverX scanMAX Kinase panel
In short: as §1

IRAK4 = biological target: T31, IRAK4 (Homo sapiens, UniProt Q9NWZ3)
T31 construct: purchased DiscoverX scanMAX Kinase panel
In short: as §1

FRK = biological target: T32, FRK (Homo sapiens, UniProt P42685); conditions: read-out: % Cont @ 1 uM
T32 construct: purchased DiscoverX scanMAX Kinase panel
In short: as §1

KIT(A829P) = biological target: T33, KIT(A829P) (Homo sapiens, UniProt P10721, A829P); conditions: read-out: % Cont @ 1 uM
T33 construct: purchased DiscoverX scanMAX Kinase panel
In short: as §1

AURKB = biological target: T34, AURKB (Homo sapiens, UniProt Q96GD4); conditions: read-out: % Cont @ 1 uM
T34 construct: purchased DiscoverX scanMAX Kinase panel
In short: as §1

TESK1 = biological target: T35, TESK1 (Homo sapiens, UniProt Q15569); conditions: read-out: % Cont @ 1 uM
T35 construct: purchased DiscoverX scanMAX Kinase panel
In short: as §1

[7] = biological target: T36, ABL1(M351T)-phosphorylated (Homo sapiens, UniProt P00519, M351T); conditions: read-out: % Cont @ 1 uM
T36 construct: purchased DiscoverX
In short: as §1

T30 sequence (Q8IVH8 whole entry): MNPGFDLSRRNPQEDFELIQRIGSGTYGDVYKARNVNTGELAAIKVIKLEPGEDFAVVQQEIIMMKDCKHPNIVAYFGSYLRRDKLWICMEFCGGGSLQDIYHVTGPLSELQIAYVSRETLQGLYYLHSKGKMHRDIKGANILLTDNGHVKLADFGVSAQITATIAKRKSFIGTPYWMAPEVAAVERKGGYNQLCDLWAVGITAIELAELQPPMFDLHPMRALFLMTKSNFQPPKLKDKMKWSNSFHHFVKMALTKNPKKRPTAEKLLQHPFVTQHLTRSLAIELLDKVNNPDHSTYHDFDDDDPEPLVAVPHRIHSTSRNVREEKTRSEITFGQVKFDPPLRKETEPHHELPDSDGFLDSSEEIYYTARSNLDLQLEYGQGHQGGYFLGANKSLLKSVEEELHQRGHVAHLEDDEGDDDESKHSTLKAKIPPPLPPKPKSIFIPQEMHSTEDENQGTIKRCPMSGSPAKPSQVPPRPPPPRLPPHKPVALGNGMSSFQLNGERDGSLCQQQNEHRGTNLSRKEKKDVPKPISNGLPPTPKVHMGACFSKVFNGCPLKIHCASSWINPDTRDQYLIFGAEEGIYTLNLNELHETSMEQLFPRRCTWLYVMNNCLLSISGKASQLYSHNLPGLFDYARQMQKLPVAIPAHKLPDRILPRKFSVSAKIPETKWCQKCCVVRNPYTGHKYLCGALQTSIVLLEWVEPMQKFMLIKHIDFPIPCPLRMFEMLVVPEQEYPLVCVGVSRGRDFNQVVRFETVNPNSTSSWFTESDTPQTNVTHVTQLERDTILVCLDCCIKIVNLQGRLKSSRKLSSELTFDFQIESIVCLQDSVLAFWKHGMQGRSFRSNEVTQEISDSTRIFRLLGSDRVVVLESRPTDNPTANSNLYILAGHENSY
T3 sequence (P07949 29-1114 V804M): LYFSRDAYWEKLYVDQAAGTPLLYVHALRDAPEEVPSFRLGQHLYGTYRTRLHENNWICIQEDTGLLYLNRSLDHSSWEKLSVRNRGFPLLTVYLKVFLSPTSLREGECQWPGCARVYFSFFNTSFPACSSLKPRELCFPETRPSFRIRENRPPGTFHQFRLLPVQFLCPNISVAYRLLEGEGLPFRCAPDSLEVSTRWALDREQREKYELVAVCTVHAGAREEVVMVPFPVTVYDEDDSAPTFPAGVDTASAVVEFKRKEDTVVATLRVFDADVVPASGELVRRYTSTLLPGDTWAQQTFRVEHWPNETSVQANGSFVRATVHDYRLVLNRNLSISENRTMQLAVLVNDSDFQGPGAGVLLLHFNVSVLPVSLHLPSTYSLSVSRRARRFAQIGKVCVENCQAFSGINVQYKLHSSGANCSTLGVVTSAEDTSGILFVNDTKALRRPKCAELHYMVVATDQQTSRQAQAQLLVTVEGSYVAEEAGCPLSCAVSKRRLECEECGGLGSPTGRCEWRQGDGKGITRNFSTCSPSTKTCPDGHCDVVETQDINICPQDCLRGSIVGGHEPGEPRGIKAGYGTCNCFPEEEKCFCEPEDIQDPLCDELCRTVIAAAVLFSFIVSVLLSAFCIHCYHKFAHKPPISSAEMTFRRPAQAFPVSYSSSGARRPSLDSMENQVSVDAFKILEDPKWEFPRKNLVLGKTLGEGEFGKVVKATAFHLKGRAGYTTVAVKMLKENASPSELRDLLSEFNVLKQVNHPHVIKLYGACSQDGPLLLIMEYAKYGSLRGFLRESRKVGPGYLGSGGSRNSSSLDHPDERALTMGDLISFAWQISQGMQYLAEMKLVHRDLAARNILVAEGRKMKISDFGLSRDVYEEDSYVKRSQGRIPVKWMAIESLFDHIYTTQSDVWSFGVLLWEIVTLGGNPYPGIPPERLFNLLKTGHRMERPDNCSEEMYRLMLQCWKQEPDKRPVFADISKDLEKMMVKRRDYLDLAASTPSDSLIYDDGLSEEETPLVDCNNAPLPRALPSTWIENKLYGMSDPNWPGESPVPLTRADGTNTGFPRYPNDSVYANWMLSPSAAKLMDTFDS
T10 sequence (P07948 whole entry): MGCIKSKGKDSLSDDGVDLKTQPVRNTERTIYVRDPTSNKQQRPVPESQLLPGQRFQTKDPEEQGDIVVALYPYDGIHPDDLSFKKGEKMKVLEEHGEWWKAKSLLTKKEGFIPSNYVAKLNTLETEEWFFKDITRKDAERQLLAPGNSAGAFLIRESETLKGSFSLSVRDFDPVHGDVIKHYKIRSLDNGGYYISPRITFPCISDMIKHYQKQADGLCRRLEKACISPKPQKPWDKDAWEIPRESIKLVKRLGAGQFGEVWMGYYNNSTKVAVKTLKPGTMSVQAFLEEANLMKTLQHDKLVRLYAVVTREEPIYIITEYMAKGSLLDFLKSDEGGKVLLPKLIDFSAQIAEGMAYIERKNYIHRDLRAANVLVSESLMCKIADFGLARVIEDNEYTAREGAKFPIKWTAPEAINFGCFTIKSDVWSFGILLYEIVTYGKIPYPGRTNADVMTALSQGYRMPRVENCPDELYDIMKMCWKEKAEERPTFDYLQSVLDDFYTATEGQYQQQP
T13 sequence (P17948 27-1338): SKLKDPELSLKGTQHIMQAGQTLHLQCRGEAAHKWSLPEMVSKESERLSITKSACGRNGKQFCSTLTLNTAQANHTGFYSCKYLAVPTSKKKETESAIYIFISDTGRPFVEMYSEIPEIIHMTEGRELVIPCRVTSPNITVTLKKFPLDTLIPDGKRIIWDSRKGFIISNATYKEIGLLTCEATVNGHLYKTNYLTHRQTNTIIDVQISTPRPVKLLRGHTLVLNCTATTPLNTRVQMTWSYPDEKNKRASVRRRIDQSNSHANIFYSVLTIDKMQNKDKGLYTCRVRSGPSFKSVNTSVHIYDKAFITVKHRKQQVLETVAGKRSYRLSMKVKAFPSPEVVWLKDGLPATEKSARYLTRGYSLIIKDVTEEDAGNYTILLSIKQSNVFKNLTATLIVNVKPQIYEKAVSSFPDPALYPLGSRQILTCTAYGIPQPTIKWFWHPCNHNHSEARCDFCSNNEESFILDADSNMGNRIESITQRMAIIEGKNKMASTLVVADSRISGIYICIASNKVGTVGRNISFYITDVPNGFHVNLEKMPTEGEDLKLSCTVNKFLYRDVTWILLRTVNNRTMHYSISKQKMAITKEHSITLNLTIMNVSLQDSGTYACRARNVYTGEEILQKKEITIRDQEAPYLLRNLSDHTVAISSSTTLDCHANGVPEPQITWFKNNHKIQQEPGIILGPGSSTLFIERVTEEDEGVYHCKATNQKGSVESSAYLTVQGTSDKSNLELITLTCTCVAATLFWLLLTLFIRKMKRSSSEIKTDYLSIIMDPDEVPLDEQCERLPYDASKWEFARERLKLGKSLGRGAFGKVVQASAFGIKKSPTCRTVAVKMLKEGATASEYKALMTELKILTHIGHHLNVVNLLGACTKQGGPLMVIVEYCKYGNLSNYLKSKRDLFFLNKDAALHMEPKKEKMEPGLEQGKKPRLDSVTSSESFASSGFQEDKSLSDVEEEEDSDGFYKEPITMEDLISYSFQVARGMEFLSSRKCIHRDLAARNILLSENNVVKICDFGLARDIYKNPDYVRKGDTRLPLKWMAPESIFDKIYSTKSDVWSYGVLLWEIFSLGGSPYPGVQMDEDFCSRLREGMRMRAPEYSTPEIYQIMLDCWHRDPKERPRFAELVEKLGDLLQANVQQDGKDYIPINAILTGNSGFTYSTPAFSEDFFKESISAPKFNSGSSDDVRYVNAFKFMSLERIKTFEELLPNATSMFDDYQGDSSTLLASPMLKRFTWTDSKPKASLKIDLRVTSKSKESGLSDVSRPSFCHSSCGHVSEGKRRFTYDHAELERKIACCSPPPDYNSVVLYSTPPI
T25 sequence (Q15375 28-998): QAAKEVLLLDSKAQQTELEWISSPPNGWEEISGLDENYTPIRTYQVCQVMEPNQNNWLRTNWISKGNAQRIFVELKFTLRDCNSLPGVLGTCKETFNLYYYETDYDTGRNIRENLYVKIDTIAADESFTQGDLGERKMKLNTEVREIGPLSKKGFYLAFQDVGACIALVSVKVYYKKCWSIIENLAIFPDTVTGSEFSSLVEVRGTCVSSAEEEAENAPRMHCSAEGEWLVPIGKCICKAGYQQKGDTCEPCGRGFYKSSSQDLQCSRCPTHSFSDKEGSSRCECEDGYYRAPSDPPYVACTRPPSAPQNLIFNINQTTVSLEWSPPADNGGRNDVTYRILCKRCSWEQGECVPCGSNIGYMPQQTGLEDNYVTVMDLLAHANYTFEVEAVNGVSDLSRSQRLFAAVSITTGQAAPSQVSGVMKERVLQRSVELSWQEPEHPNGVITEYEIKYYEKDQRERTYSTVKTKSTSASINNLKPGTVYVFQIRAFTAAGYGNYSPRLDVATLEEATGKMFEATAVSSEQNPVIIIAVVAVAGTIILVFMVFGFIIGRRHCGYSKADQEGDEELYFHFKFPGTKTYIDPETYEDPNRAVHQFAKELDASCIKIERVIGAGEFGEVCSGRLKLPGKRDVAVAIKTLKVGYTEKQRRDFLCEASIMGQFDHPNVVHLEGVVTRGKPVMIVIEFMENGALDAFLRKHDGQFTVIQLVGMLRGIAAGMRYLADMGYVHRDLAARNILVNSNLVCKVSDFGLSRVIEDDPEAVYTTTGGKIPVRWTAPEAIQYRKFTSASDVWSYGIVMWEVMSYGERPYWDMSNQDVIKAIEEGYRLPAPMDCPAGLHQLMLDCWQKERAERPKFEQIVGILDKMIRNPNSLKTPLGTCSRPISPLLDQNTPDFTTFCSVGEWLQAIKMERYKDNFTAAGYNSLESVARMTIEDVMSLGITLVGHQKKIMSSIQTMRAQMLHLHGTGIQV

SMILES | remaining binding at 1 µM (TNK2) | remaining binding at 1 µM [1] | remaining binding at 1 µM (RET(V804M)) | remaining binding at 1 µM [2] | remaining binding at 1 µM (KIT(V559D, V654A)) | remaining binding at 1 µM (YSK4) | remaining binding at 1 µM [3] | remaining binding at 1 µM (MEK5) | % Cont @ 1 uM (BTK) | percent of control binding at 1 µM (LYN) | remaining binding at 1 µM (PFTAIRE2) | % Cont @ 1 uM (CSK) | remaining binding at 1 µM (FLT1) | remaining binding at 1 µM (STK33) | remaining binding at 1 µM (HPK1) | remaining binding at 1 µM (FLT3(D835H)) | % Cont @ 1 uM (JNK2) | remaining binding at 1 µM (CDC2L1) | remaining binding at 1 µM (RIPK1) | % Cont @ 1 uM (EPHB2) | further results
Cc1cn(-c2cc(NC(=O)c3cc(C#Cc4cnc5c(Nc6cnn(C)c6)cccn45)c(C)cc3F)cc(C(C)(C)C#N)c2)cn1 [Example 1, N-(3-(2-cyanopropane-2-yl)-5-(4-methyl-1H-imidazol-1-yl)phenyl)-2-fluoro-4-methyl-5-((8-((1-methyl-1H-pyrazol-4-yl)amino)imidazo[1,2-a]pyridin-3-yl)ethynyl)benzamide] | 31% | 0.9% | 0.35% | 0% | 2.9% | 0.3% | 8.9% | 0% | 2.2% | 0.5% | 4.3% | 0.3% | 1.4% | 12% | 2% | 0.45% | 12% | 27% | 1.6% | 6.3% | remaining binding at 1 µM (FLT4): 0.35%; remaining binding at 1 µM (EPHA4): 26%; remaining binding at 1 µM [4]: 2.3%; remaining binding at 1 µM [5]: 0.55%; remaining binding at 1 µM (EPHA7): 16%; remaining binding at 1 µM [6]: 0.15%; % Cont @ 1 uM (EGFR(G719C)): 5.2%; % Cont @ 1 uM (MET(Y1235D)): 17%; remaining binding at 1 µM (SRC): 0.1%; % Cont @ 1 uM (MAP4K3): 4%; % Cont @ 1 uM (IRAK4): 34%; remaining binding at 1 µM (FRK): 1.6%; percent of control binding at 1 µM (KIT(A829P)): 1.1%; remaining binding at 1 µM (AURKB): 26%; remaining binding at 1 µM (TESK1): 33%; remaining binding at 1 µM [7]: 0.25%
Cc1cn(-c2cc(NC(=O)c3cc(C#Cc4cnc5c(Nc6cnn(C)c6)cccn45)c(C)cc3F)cc(C(F)(F)F)c2)cn1 [Example 4, 2-fluoro-4-methyl-N-(3-(4-methyl-1H-imidazol-1-yl)-5-(trifluoromethyl)phenyl)-5-((8-((1-methyl-1H-pyrazol-4-yl)amino)imidazo[1,2-a]pyridin-3-yl)ethynyl)benzamide] | 91% | 12% | 4.3% | 1.2% | 12% | 3% | 10% | 1.2% | 38% | 4.7% | 76% | 0.8% | 11% | 76% | 41% | 4.5% | 81% | 79% | 44% | 32% | remaining binding at 1 µM (FLT4): 4.4%; remaining binding at 1 µM (EPHA4): 28%; remaining binding at 1 µM [4]: 16%; remaining binding at 1 µM [5]: 9.6%; remaining binding at 1 µM (EPHA7): 63%; remaining binding at 1 µM [6]: 5.9%; % Cont @ 1 uM (EGFR(G719C)): 56%; % Cont @ 1 uM (MET(Y1235D)): 87%; remaining binding at 1 µM (SRC): 1.4%; % Cont @ 1 uM (MAP4K3): 70%; % Cont @ 1 uM (IRAK4): 89%; remaining binding at 1 µM (FRK): 26%; percent of control binding at 1 µM (KIT(A829P)): 2%; remaining binding at 1 µM (AURKB): 57%; remaining binding at 1 µM (TESK1): 100%; remaining binding at 1 µM [7]: 10%
